Values quoted from earlier work in US20070104792A1, “Nanoparticulate tadalafil formulations” (Elan Pharma International, Limited, priority 2005, published 2007).

Conditions: conventional crystalline solid

Q: For `CN1CC(=O)N2[C@H](c3ccc4c(c3)OCO4)c3[nH]c4ccccc4c3C[C@@H]2C1=O` [tadalafil, pyrazino[1′,2′:1,6]pyrido[3,4-b]indole-1,4-dione, 6-(1,3-benzodioxol-5-yl)-2,3,6,7,12,12a-hexahydro-2-methyl-, (6R,12aR)], which Solubility in ethanol (ethanol) is on record?
A: The Solubility in ethanol was “very slightly soluble in ethanol”.

Q: And the Solubility in water (water)?
A: The Solubility in water was “practically insoluble in water”.
